Measurements from the supplement of paper PMC10477900.
Structures can show the parent of a compound that is named as a salt.

Experiments:
[1] = test system: HCT116; assay: viability inhibition vs untreated; higher = more cytotoxic; settings: 72 h
[2] = test system: HCT116; settings: 72 h
Description: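 HCT116 control and MTA1-KO (CRISPR) HCT116 cells were seeded in 384-well plates (800 cells/well), treated 16 h later with 237 metabolism-related anticancer drugs at five doses (10 uM, 2 uM, 400 nM, 80 nM, 16 nM) for 72 h, two replicates; viability by CCK8. Values are % inhibition of viability relative to untreated cells, plus fitted IC50.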

Structure (SMILES) | viability inhibition ([1]; genotype: MTA1-KO, 16 nM) [%] | viability inhibition ([1]; genotype: MTA1-KO, 80 nM) [%] | viability inhibition ([1]; genotype: MTA1-KO, 400 nM) [%] | viability inhibition ([1]; genotype: MTA1-KO, 2000 nM) [%] | viability inhibition ([1]; genotype: MTA1-KO, 10000 nM) [%] | viability inhibition ([1]; genotype: control, 16 nM) [%] | viability inhibition ([1]; genotype: control, 80 nM) [%] | viability inhibition ([1]; genotype: control, 400 nM) [%] | viability inhibition ([1]; genotype: control, 2000 nM) [%] | viability inhibition ([1]; genotype: control, 10000 nM) [%] | IC50 ([2]; genotype: MTA1-KO) [µM] | IC50 ([2]; genotype: control) [µM]
CC(=O)O[C@H]1C[C@H](O[C@H]2[C@@H](O)C[C@H](O[C@H]3[C@@H](O)C[C@H](O[C@H]4CC[C@@]5(C)[C@H](CC[C@@H]6[C@@H]5C[C@@H](O)[C@]5(C)[C@@H](C7=CC(=O)OC7)CC[C@]65O)C4)O[C@@H]3C)O[C@@H]2C)O[C@H](C)[C@H]1O[C@@H]1O[C@H](CO)[C@@H](O)[C@H](O)[C@H]1O [Lanatoside C] | 2.02 | 2.18 | 87.7 | 105 | 107 | -11.4 | 12.6 | 88 | 99.5 | 101 | 0.286 | 0.145
NS(=O)(=O)c1ccc(NC(=O)Nc2ccc(F)cc2)cc1 [U104] | -21.7 | -21.1 | -25.6 | -26.9 | -10.5 | -3.77 | -10.5 | -6.63 | -1.16 | 4.44 | > 10 | > 10
CC1(C)O[C@@H]2[C@@H](CO[C@@]3(COS(N)(=O)=O)OC(C)(C)O[C@@H]23)O1 [Topiramate] | -4.79 | -13.2 | -12.6 | -13 | -6.53 | 0.571 | -0.663 | 3.41 | 3.1 | 12.4 | > 10 | > 10
COc1ccccc1OCC(O)CN1CCN(CC(=O)Nc2c(C)cccc2C)CC1 (configuration not stated) [Ranolazine] | -0.081 | 5.69 | 8.98 | 2.99 | 74.3 | -8.25 | -12.6 | -15.3 | -15 | 8.96 | 6.87 | > 10
O=c1cc(N2CCOCC2)oc2c(-c3ccc4c(c3)OCCO4)csc12 [SF2523] | 7.25 | -7.41 | -9.52 | -14.8 | 68.1 | -25.2 | -16.4 | -24 | -23.1 | 55.5 | 8.68 | 9.37
NC(N)=NCCC[C@H](N)C(=O)O [L-arginine monohydrochloride] | -2.61 | -19.3 | -11.5 | -6.84 | 12.2 | -3.45 | -8.59 | 1.36 | 1.49 | 23.5 | > 10 | > 10
COc1ccccc1OCC(O)COC(N)=O (configuration not stated) [Methocarbamol] | -9.86 | -16.2 | -9.99 | -8.84 | -12 | -5.51 | -3.73 | -0.351 | 5.2 | 11 | > 10 | > 10
O=C(NCCCNc1nc(Nc2cccc(NC(=O)N3CCCC3)c2)ncc1I)c1cccs1 [BX795] | -13.8 | -8.82 | -26.4 | -9.81 | -6.85 | -1.4 | -15 | -1.64 | 18.7 | 7.91 | > 10 | > 10
NC(N)=NC(N)=NCCc1ccccc1 [Phenformin hydrochloride] | -11.4 | -9.26 | -10.6 | -4.27 | 20.1 | 12.5 | 18.4 | 9.46 | 8.84 | 42.4 | > 10 | > 10
Nc1ncnc2c1ncn2[C@@H]1O[C@H](COP(=O)(O)O)[C@@H](O)[C@H]1O [Adenosine 5'-monophosphate] | 1.56 | 3.02 | 2 | -3.03 | 4.43 | 9.4 | 14.9 | 9.53 | 10.4 | 17.4 | > 10 | > 10
O=[N+]([O-])c1ccc(Nc2nc(N3CCOCC3)nc(N3CCOCC3)n2)cc1 [MHY1485] | 7.65 | 14.4 | 13.3 | 8.16 | 45.5 | -9.75 | 7.66 | 14.9 | 23.1 | 74.8 | > 10 | 4.59
CCc1nc(N)nc(N)c1-c1ccc(Cl)cc1 [Pyrimethamine] | -6.42 | -11.6 | -0.866 | 10.9 | 60.5 | 2.52 | 7.55 | 13.3 | 20.1 | 82.3 | 6.54 | 4.89
O=c1oc2cc(O)ccc2s1 [Tioxolone] | -23.8 | -21.4 | -19 | -28.2 | -26.1 | 0.941 | -1.9 | -1.53 | -13.6 | -6.09 | > 10 | > 10
Cc1c(CN2CCN(C(=O)[C@H](C)O)CC2)sc2c(N3CCOCC3)nc(-c3cnc(N)nc3)nc12 [Apitolisib] | -11.5 | 2.04 | 38.8 | 65.3 | 82.6 | 0.365 | 0.791 | 60.6 | 70.1 | 80.4 | 0.471 | 0.268
Cc1ccc2c(c1)C(=O)[C@]1(O)CCN(c3ccccc3)C1=N2 [(-)-Blebbistatin] | 2.62 | -5.47 | -2.06 | -3.88 | -5.36 | -9 | -4.56 | -13.5 | -18.9 | -8.68 | > 10 | > 10
CC(=O)Nc1nnc(S(N)(=O)=O)s1 [Acetazolamide] | -8.41 | -9.41 | -15.4 | -8.8 | 6.99 | -4.74 | -13.5 | -4.54 | -3.32 | -0.433 | > 10 | > 10
CC1=C(CSC(=S)N2CCCCC2)C(=O)c2ccccc2C1=O [PKM2 inhibitor] | -2.72 | -15.5 | -11 | 79.7 | 65.9 | -0.424 | -10.4 | -5.1 | 5.17 | 33.3 | 0.861 | > 10
NS(=O)(=O)c1cc2c(cc1C(F)(F)F)NC(Cc1ccccc1)NS2(=O)=O (configuration not stated) [Bendroflumethiazide] | -4.82 | -2.33 | -5.2 | -12.6 | -13.6 | 0.542 | -1.18 | -14.6 | 4.49 | -9.53 | > 10 | > 10

Structure (SMILES) | viability inhibition ([1]; genotype: MTA1-KO, 16 nM) [%] | viability inhibition ([1]; genotype: MTA1-KO, 80 nM) [%] | viability inhibition ([1]; genotype: MTA1-KO, 400 nM) [%] | viability inhibition ([1]; genotype: MTA1-KO, 2000 nM) [%] | viability inhibition ([1]; genotype: MTA1-KO, 10000 nM) [%] | viability inhibition ([1]; genotype: control, 16 nM) [%] | viability inhibition ([1]; genotype: control, 80 nM) [%] | viability inhibition ([1]; genotype: control, 400 nM) [%] | viability inhibition ([1]; genotype: control, 2000 nM) [%] | viability inhibition ([1]; genotype: control, 10000 nM) [%] | IC50 ([2]; genotype: MTA1-KO) [µM] | IC50 ([2]; genotype: control) [µM]
C[C@H]1CCC/C=C/[C@@H]2C[C@H](O)C[C@H]2[C@H](O)/C=C/C(=O)O1 [Brefeldin A] | -15.6 | -20.1 | 104 | 105 | 105 | 4.87 | -4.17 | 112 | 109 | 110 | 0.255 | 0.166
COc1cc2c(cc1O)CC[C@@H]1[C@@H]2CC[C@]2(C)[C@@H](O)CC[C@@H]12 [2-Methoxyestradiol] | 12.6 | 9.89 | 15.7 | 38.7 | 80.2 | 8.28 | 14.6 | 22.6 | 24.1 | 33.6 | 3.34 | > 10
c1cc(-c2cnn3cc(-c4ccc(OCCN5CCCCC5)cc4)cnc23)ccn1 [Dorsomorphin dihydrochloride] | -1.27 | -9.68 | 3.35 | 4.71 | 43.6 | -2.17 | -2.84 | -1.4 | 7.12 | 55.1 | > 10 | 8.54
N#CC(C#N)=NNc1ccc(OC(F)(F)F)cc1 [FCCP] | -7.63 | 1.48 | -17.8 | -8.82 | 87.2 | -7.79 | -5.69 | -13.2 | -7.17 | 67 | 8.13 | 9.04
NC(=O)c1ncn([C@@H]2O[C@H](CO)[C@@H](O)[C@H]2O)c1N [AICAR (Acadesine)] | -0.376 | 0.906 | -7.18 | -5.56 | 6.99 | -3.52 | -3.58 | -3.52 | -4.22 | 37.8 | > 10 | > 10
Cc1nc2ccc(CN(C)c3ccc(C(=O)N[C@@H](CCC(=O)O)C(=O)O)s3)cc2c(=O)[nH]1 [Raltitrexed] | -4.56 | 33.6 | 75.8 | 81.5 | 82.6 | -7.91 | -17.2 | 24.9 | 13 | -5.41 | 0.0857 | > 10
O=C1NC(=O)/C(=C/c2ccc3nccc(-c4ccncc4)c3c2)S1 | -12 | -22.4 | 10.1 | 64.1 | 99.4 | 1.82 | -12 | 5.41 | 56.4 | 75.1 | 1.21 | 2.02
CC(=O)OCC(=O)[C@@]1(O)CC[C@H]2[C@@H]3CCC4=CC(=O)C=C[C@]4(C)[C@H]3[C@@H](O)C[C@@]21C [Prednisolone-21-acetate] | -12.5 | -14 | -3.35 | -0.355 | -5.46 | -5.13 | -7.24 | -8.51 | -7.3 | -12.1 | > 10 | > 10
CC1=C(/C=C/C(C)=C/C=C/C(C)=C/C(=O)O)C(C)(C)CCC1 [Tretinoin] | -24.6 | -24.4 | -23.5 | -20.8 | -24.5 | -4.55 | -1.65 | -12.1 | -9.98 | -3.87 | > 10 | > 10
COc1ccc2[nH]c([S@@+]([O-])Cc3ncc(C)c(OC)c3C)nc2c1 [Esomeprazole Magnesium] | 2.7 | 2.87 | 3.11 | 1.54 | 3.86 | 16.3 | 11.1 | 18 | 11.9 | 21.2 | > 10 | > 10
Cc1cc(C2CCCCC2)n(O)c(=O)c1 [Ciclopirox ethanolamine] | -18 | -22.5 | -14.4 | -5.78 | 54.5 | -10.2 | 5.38 | 5.2 | 46.4 | 91.6 | 7.38 | 1.88
C/C(=N\NC(=O)c1cccc(S(=O)(=O)N2CCOCC2)c1)c1cc(Cl)ccc1O [SP2509] | 13 | 7.45 | 18 | 98.5 | 99.6 | -5.87 | -2.4 | 14.8 | 104 | 103 | 0.69 | 0.493
NS(=O)(=O)c1ccc(S(=O)(=O)Nc2cccc3c(Cl)c[nH]c23)cc1 [Indisulam] | -0.89 | 30.5 | 59.8 | 90.3 | 96.6 | -5.81 | -7.51 | 10.8 | 90.9 | 90.2 | 0.129 | 0.445
CCN[C@H]1CN(CCCOC)S(=O)(=O)c2sc(S(N)(=O)=O)cc21 [Brinzolamide] | -13.1 | -25.7 | -24.4 | -29.9 | -25.2 | -12.4 | -11.9 | -8.93 | -15.3 | -13.6 | > 10 | > 10
CCC(=O)N1CCN(c2ccc(-n3c(=O)ccc4cnc5ccc(-c6cnc7ccccc7c6)cc5c43)cc2C(F)(F)F)CC1 [Torin 1] | 2.4 | 8.65 | 52 | 70.7 | 80.9 | -14.3 | -3.02 | 4.25 | 56 | 62.3 | 0.324 | 1.8
CC1(C)CC[C@]2(C(=O)O[C@@H]3O[C@H](CO)[C@@H](O)[C@H](O)[C@H]3O)CC[C@]3(C)C(=CC[C@@H]4[C@@]5(C)CC[C@H](O[C@@H]6O[C@H](C(=O)O)[C@@H](O)[C@H](O)[C@H]6O)C(C)(C)[C@@H]5CC[C@]43C)[C@@H]2C1 [Chikusetsusaponin IVa] | -3.21 | -3.77 | -2.17 | -0.406 | 19.3 | -1.39 | -7.09 | -12.1 | -11.2 | 3.05 | > 10 | > 10
Cc1nc(Nc2ccc(F)cc2)nc(N2CCc3ccccc3C2C)c1C (configuration not stated) [Revaprazan hydrochloride] | -4.67 | -1.6 | -2.29 | -13.6 | -33.6 | 20.9 | 17.7 | 11 | 7.17 | -10.8 | > 10 | > 10
Cc1ccccc1C(=O)N1CCc2cc(-c3nc(NC(=O)Cc4ccc5c(c4)OCO5)sc3C)ccc21 [ML385] | 4.66 | -3.65 | -2.81 | 0.224 | 49.3 | 3.74 | -1.5 | 2.66 | -0.526 | 29.4 | > 10 | > 10
